Data as given in patent publication US20200277268A1, “PENTAFLUOROPHENYL SULFONAMIDE COMPOUNDS, COMPOSITIONS AND USES THEREOF” (DALRIADA THERAPEUTICS INC., priority 2017, published 2020).

What was measured:
in vitro = conditions: mouse, hepatocytes
Protocol: (§3) A stock of 100 μM test compound was prepared by diluting the 10 mM I-1 test compound in DMSO with a solution of 50% acetonitrile and 50% water. In a 96-well non-coated plate, 198 μL of hepatocytes was pipetted, and the plate was placed in the incubator on an orbital shaker to allow the hepatocytes to warm for 10 minutes. To this solution 2 μL of the 100 μM I-1 was added to start the reaction, and the plate was placed on an orbital shaker. […] The reaction solution was then vortexed for 10 minutes and centrifuged at 4,000 rpm for 30 minutes at 4° C. Next, 400 μL of the supernatant was transferred to one new 96-well plate, centrifuged at 4,000 rpm for 30 minutes at 4° C., and 100 μL of the supernatant was transferred to a new 96-well plate ensuring the pellet was not disturbed. 100 μL of ultrapure water was added to all samples for analysis by LC-MS/MS.
Injection volume was 10 μL.

MOLM13 = assay: CellTiter-Blue cell viability, MOLM13; type: cell-based; conditions: Homo sapiens, MOLM-13; AML cell line, 72 hours
Protocol: (§1) The anti-cancer efficacy of exemplary compounds of the application were assessed in vitro against different cancer cell lines. Cell viability was examined following treatment at various concentrations of inhibitor (0.097656-50 μM) using a CellTiter-Blue® cell viability assay. 1×10^4 cells/well were plated in 96-well assay plates in culture medium. All cells were grown in DMEM, IMDM and RPMI-1640 supplemented with 10% fetal bovine serum (FBS). In some instances, FBS was removed for periods ranging from 16-24 hours, and re-introduced with test compound addition. After 24 hrs, test compounds and vehicle controls were added to appropriate wells such that the final volume was 100 μl in each well. The cells were cultured for the desired test exposure period (72 hours) at 37° C. and 5% CO2. The assay plates were removed from 3° C. incubator and 20 μl/well of CellTiter-Blue® Reagent was added. The plates were incubated using standard cell culture conditions for 1-4 hours. Afterwards, the plates were shaken for 10 seconds and florescence was recorded at 560/590 nm using a Cytation 3 spectrophotometer. IC50 values were determined using non-linear regression analysis with GraphPad Prism 6.0 (GraphPad Software Inc.).

MV4-11 = assay: CellTiter-Blue cell viability, MV4-11; type: cell-based; conditions: for IC50: Homo sapiens, MV4-11, AML cell line, 72 hours
Protocol: as §1

[1] = tested on: healthy keratinocyte cells (HaCaT); assay: CellTiter-Blue cell viability, HaCaT; type: cell-based; conditions: Homo sapiens, non-cancerous, 72 hours
Protocol: as §1

[2] = tested on: healthy human lung cells (MRC9); assay: CellTiter-Blue cell viability, MRC9; type: cell-based; conditions: non-cancerous, 72 hours
Protocol: as §1

[3] = tested on: primary human fibroblast cells (PHF); assay: CellTiter-Blue cell viability, PHF; type: cell-based; conditions: non-cancerous, 72 hours
Protocol: as §1

D425 = assay: Cell viability, medulloblastoma D425; type: cell-based; conditions: medulloblastoma cell line
Protocol: as §1, with “Inc.). […]” for “Inc.).”

[4] = Intrinsic clearance in mouse hepatocytes
Protocol: as §3
Injection volume was 10 μL.

D458 = assay: Cell viability, medulloblastoma D458; type: cell-based; conditions: medulloblastoma cell line
Protocol: as §1, with “Inc.). […]” for “Inc.).”

ATCC3034 = assay: Cell viability, medulloblastoma ATCC3034; type: cell-based; conditions: medulloblastoma cell line
Protocol: as §1, with “Inc.). […]” for “Inc.).”

GBM8 = assay: Proliferation of patient derived GBM BTIC line GBM8; type: cell-based; conditions: 62.5, 125, 250 nM, four days
Protocol: (§2) Glioblastoma (GBM) tumor cells with stem-cell properties termed brain tumor initiating cells (BTICs,) are enriched using serum-free culture. Effects of select exemplary compounds were tested on cell proliferation in patient derived GBM BTIC lines: GBM8 and BT428. GBM BTICs were cultured in NeuroCult™ NS-A Proliferation Medium (STEMcell Technologies) supplemented with epidermal growth factor (20 ng/mL), basic fibroblast growth factor (10 ng/mL) and 2 ug/mL of Heparin. The cells were dissociated into single cells and viable cells sorted into 96 well plate at a density of 1000 cells/well. The cells were then treated with varying doses of selected compounds (250 nM, 125 nM, 62.5 nM) with three technical replicates per dilution. DMSO was used as control. Four days following the addition of compounds, the proliferative capacity of GBM BTICs was assessed using PrestoBlue Cell Viability reagent (Invitrogen).

[5] = tested on: UFMylation pathway (UBA5, UFC1, UFM1, c-Myc) in MV4-11 cells; assay: Western blot of UFMylation pathway in MV4-11 cells; type: cell-based; conditions: 8 hours, 0 to 1 μM
Protocol: Post-treatment (8 hours) of MV4-11 cells with I-1 test compound at 1, 0.5, 0.25, 0.1 and 0 μM concentrations, all cells were lysed with radioimmunoprecipitation assay (RIPA) buffer: 20 mM Tris pH 7.4, 150 mM NaCl, 0.5% deoxycholate, 1% Triton X-100, 0.1% sodium dodecyl sulfate (SDS). Total protein was measured using BCA assay (Sigma). In each assay, clarified protein were resolved on a 4%-15% polyacrylamideSDS gel and transferred to a PVDF membrane (Bio-Rad). The membranes were blocked with 5% solution of skim milk powder in TBST and incubated for at least 1 hour followed by an overnight incubation at 4° C. in primary antibody (1:1000 dilution). Blots were probed with antibodies against UBA5, UFM1, UFC1, c-Myc, and beta-actin was used as a loading control (Santa Cruz Biotechnology catalog # sc-835). The PVDF membrane then washed with TBST (3 times for 5 minutes). A horseradish peroxides (HRP)-conjugated goat anti-mouse IgG secondary antibodies (Cell signaling Catalog #7076S) was applied to the membrane (1:5000 dilution) and incubated for 1 hour at room temperature. The blots were then rinsed again 3 times in TBST for 10 minutes. Bands were visualized using clarity western ECL substrate luminal/enhancer solution and peroxide solution 1:1 ratio for HRP secondary antibody, according to the manufacturer's instructions (Bio-Rad) and analyzed using Image lab software (Bio-Rad).

BT428 = assay: Proliferation of patient derived GBM BTIC line BT428; type: cell-based; conditions: 62.5, 125, 250 nM, four days
Protocol: as §2

| SMILES | IC50 (MOLM13) [nM] | IC50 (MV4-11) [nM] | IC50 [2] [nM] | IC50 [3] [nM] | other results |
| --- | --- | --- | --- | --- | --- |
| COc1ccc(NS(=O)(=O)c2c(F)c(F)c(F)c(F)c2F)cc1F [Batabulin] | – | – | – | – | half-life at 1 μM (in vitro): 0.298 h |
| O=S(=O)(c1ccc(F)cc1)N(Cc1ccc(F)cc1)C1CC1 [Comparative Example 3, N-cyclopropyl-4-fluoro-N-(4-fluorobenzyl)benzenesulfonamide, reference compound] | > 25000 | > 25000 | > 25000 | – | activity in AML cells (MV4-11; AML cells (MV4-11 and MOLM13)): inactive; IC50 [1]: > 25000 nM |
| O=S(=O)(c1c(F)c(F)c(F)c(F)c1F)N(Cc1ccc(F)cc1)CC1CC1 [Compound I-2, N-(cyclopropylmethyl)-2,3,4,5,6-pentafluoro-N-(4-fluorobenzyl)benzenesulfonamide] | 1600 | 850 | 7700 | 2900 | – |
| O=S(=O)(c1c(F)c(F)c(F)c(F)c1F)N(Cc1ccc(Cl)cc1)C1CC1 [Compound I-7, N-(4-chlorobenzyl)-N-cyclopropyl-2,3,4,5,6-pentafluorobenzenesulfonamide] | 3500 | 1370 | 16400 | 2700 | IC50 (D425): 1400 nM; half-life at 1 μM [4]: 1.92 h; IC50 (D458): 2000 nM; IC50 (ATCC3034): 300 nM |
| COc1ccc(CN(C2CC2)S(=O)(=O)c2c(F)c(F)c(F)c(F)c2F)cc1 [Compound I-8, N-cyclopropyl-2,3,4,5,6-pentafluoro-N-(4-methoxybenzyl)benzenesulfonamide] | 730 | 930 | – | – | IC50 [1]: 17400 nM |
| O=S(=O)(c1c(F)c(F)c(F)c(F)c1F)N(Cc1ccc(F)nc1)C1CC1 [Compound I-12, N-cyclopropyl-2,3,4,5,6-pentafluoro-N-((6-fluoropyridin-3-yl)methyl)benzenesulfonamide] | 3070 | 1350 | 18000 | 5000 | – |
| O=S(=O)(c1c(F)c(F)c(F)c(F)c1F)N(Cc1ccc(F)cn1)C1CC1 [Compound I-13, N-cyclopropyl-2,3,4,5,6-pentafluoro-N-((5-fluoropyridin-2-yl)methyl)benzenesulfonamide] | 1100 | 1700 | 25000 | 5500 | – |
| CC(C)N(Cc1ccc(F)cc1)S(=O)(=O)c1c(F)c(F)c(F)c(F)c1F [Compound I-16, 2,3,4,5,6-pentafluoro-N-(4-fluorobenzyl)-N-isopropylbenzenesulfonamide] | 3500 | 1200 | 25000 | 7200 | – |
| N#Cc1ccc(CN(C2CC2)S(=O)(=O)c2c(F)c(F)c(F)c(F)c2F)cc1 [Compound I-23, N-(4-cyanobenzyl)-N-cyclopropyl-2,3,4,5,6-pentafluorobenzenesulfonamide] | 2580 | 990 | 7800 | 5500 | – |
| O=S(=O)(c1c(F)c(F)c(F)c(F)c1F)N(Cc1ccc(C(F)(F)F)cc1)C1CC1 [Compound I-25, N-cyclopropyl-2,3,4,5,6-pentafluoro-N-(4-(trifluoromethyl)benzyl)benzenesulfonamide] | 1050 | 950 | – | 3000 | – |
| O=C(O)c1ccc(CN(C2CC2)S(=O)(=O)c2c(F)c(F)c(F)c(F)c2F)cc1 [Compound I-26, 4-(((N-cyclopropyl-2,3,4,5,6-pentafluorophenyl)sulfonamido)methyl)benzoic acid] | 1900 | 1200 | – | 6500 | – |
| O=S(=O)(c1c(F)c(F)c(F)c(F)c1F)N(Cc1c(F)cc(F)cc1F)C1CC1 [Compound I-36, N-cyclopropyl-2,3,4,5,6-pentafluoro-N-(2,4,6-trifluorobenzyl)benzenesulfonamide] | 6810 | 1520 | 26000 | 8100 | – |
| O=S(=O)(c1c(F)c(F)c(F)c(F)c1F)N(Cc1ncc(F)cc1F)C1CC1 [Compound I-37, N-cyclopropyl-N-((3,5-difluoropyridin-2-yl)methyl)-2,3,4,5,6-pentafluorobenzenesulfonamide] | 2890 | 1690 | 22000 | 8700 | effect on cell proliferation in GBM8 (GBM8): show potency |
| O=S(=O)(c1c(F)c(F)c(F)c(F)c1F)N(Cc1ccccc1F)C1CC1 [Compound I-40, N-cyclopropyl-2,3,4,5,6-pentafluoro-N-(2-fluorobenzyl)benzenesulfonamide] | 3200 | 330 | – | – | reduction of UBA5 levels and UFC1-UFM1 conjugate levels [5]: comparable activity to I-1 |
| O=S(=O)(c1c(F)c(F)c(F)c(F)c1F)N(Cc1ncccc1C(F)(F)F)C1CC1 [Compound I-43, N-cyclopropyl-2,3,4,5,6-pentafluoro-N-((3-(trifluoromethyl)pyridin-2-yl)methyl)benzenesulfonamide] | 4100 | 1670 | 8400 | – | effect on cell proliferation in BT428 (BT428): show potency |
| O=S(=O)(c1c(F)c(F)c(F)c(F)c1F)N(Cc1c(F)cc(F)cc1F)C1CCC1 [Compound I-47, N-cyclobutyl-2,3,4,5,6-pentafluoro-N-(2,4,6-trifluorobenzyl)benzenesulfonamide] | 8400 | 1140 | 15700 | 3700 | – |
| CC(C)N(Cc1ccccc1F)S(=O)(=O)c1c(F)c(F)c(F)c(F)c1F [Compound I-48] | 4110 | 1190 | 15000 | 3000 | – |
| CC(C)N(Cc1ccc(F)cc1F)S(=O)(=O)c1c(F)c(F)c(F)c(F)c1F [Compound I-49, N-(2,4-difluorobenzyl)-2,3,4,5,6-pentafluoro-N-isopropylbenzenesulfonamide] | 4200 | 1010 | 16700 | 4500 | – |
| CC(C)(C)C(=O)N(Cc1ccc(F)cc1)S(=O)(=O)c1c(F)c(F)c(F)c(F)c1F [Compound I-54, N-(4-fluorobenzyl)-N-((perfluorophenyl)sulfonyl)pivalamide] | 1700 | 700 | – | 3000 | – |
| O=S(=O)(c1c(F)c(F)c(F)c(F)c1F)N(Cc1ccc(F)cc1)C1CCC1 [Compound I-55, N-cyclobutyl-2,3,4,5,6-pentafluoro-N-(4-fluorobenzyl)benzenesulfonamide] | 730 | 430 | – | 2500 | reduction of UBA5 levels and UFC1-UFM1 conjugate levels [5]: comparable activity to I-1 |
